# Measured values published in publication PMC6967030, “Apparent Lack of BRAF^V600E Derived HLA Class I Presented Neoantigens Hampers Neoplastic Cell Targeting by CD8^+ T Cells in Langerhans Cell Histiocytosis” (Frontiers in Immunology, 2020).
# Ends that are not written are not given here.
# Key:
# Assay in all cases: Competition-based peptide-HLA class I binding assay
# [1] = biological target: HLA-A*02:01 (Homo sapiens, UniProt P04439, D140Y/D185E/D98H/E176V/E277Q/G131W/G231S/I119V/I121R/I166T/I218V/L300P/L318F/N151K/N90K/P208A/P217A/Q86G/Q94H/R138H/R169H/T345S); details: concentration that inhibits 50% binding of fluorescently-labeled standard peptide […], read-out: In vitro HLA binding affinity (IC50, nM), peptide-HLA binding assay, A*02:01
# Protocol: Competition-based peptide-HLA class I binding assays were performed as previously described ([60]).
# [2] = biological target: HLA-A*11:01 (Homo sapiens, UniProt P04439, A114D/D185E/E176A/F33Y/L180Q/S129P/T187R); details: concentration that inhibits 50% binding of fluorescently-labeled standard peptide […], read-out: In vitro HLA binding affinity (IC50, nM), peptide-HLA binding assay, A*11:01
# Protocol: (§1) Competition-based peptide-HLA class I binding assays were performed as previously described ([60]). […] The standard peptides were […] for HLA-A^*02:01 and […] for HLA-A^*03:01 and HLA-A^*11:01.
# [3] = biological target: HLA-A*03:01 (Homo sapiens, UniProt P04439); details: concentration that inhibits 50% binding of fluorescently-labeled standard peptide […], read-out: In vitro HLA binding affinity (IC50, nM), peptide-HLA binding assay, A*03:01
# Protocol: as §1
Sequence,IC50 [1],IC50 [2],IC50 [3]
KIGDFGLATE [KIGDFGLATE],86900 nM,,
KIGDFGLATEK,,45 nM,672 nM
KIGDFGLATV,40 nM,,
KIGDFGLATVK,,32 nM,415 nM
